{
  "source": "ChEMBL document CHEMBL1681744",
  "about": "“1-((3S,4S)-4-amino-1-(4-substituted-1,3,5-triazin-2-yl) pyrrolidin-3-yl)-5,5-difluoropiperidin-2-one inhibitors of DPP-4 for the treatment of type 2 diabetes” (Bioorg Med Chem Lett, 2011)",
  "key": {"Dipeptidyl peptidase 4": {"biological_target": "Dipeptidyl peptidase 4 (Homo sapiens, UniProt P27487)", "sequence (P27487 whole entry)": "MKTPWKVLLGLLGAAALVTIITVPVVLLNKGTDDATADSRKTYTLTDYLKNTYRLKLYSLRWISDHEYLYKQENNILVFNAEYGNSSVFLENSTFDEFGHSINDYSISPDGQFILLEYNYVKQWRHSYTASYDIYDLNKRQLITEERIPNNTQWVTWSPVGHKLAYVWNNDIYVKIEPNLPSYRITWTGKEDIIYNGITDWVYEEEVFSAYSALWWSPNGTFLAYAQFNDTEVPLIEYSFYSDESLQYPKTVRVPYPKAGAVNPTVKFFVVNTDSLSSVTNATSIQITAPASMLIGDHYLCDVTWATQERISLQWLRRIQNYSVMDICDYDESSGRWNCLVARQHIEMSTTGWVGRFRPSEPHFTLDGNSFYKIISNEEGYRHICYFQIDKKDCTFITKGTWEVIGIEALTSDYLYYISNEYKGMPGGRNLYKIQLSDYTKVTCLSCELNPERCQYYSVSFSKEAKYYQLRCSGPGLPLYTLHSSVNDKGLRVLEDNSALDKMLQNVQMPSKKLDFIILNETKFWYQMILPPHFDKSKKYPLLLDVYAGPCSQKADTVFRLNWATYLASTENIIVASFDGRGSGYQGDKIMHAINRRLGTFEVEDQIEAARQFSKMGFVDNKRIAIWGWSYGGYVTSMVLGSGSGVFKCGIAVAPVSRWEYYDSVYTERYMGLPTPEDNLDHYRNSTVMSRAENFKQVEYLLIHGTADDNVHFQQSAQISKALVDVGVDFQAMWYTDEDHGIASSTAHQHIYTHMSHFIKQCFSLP"}, "Liver microsomes": {"system": "Liver microsomes", "test": "Intrinsic clearance in human liver microsomes", "assay_type": "ADME, Microsome"}, "Dipeptidyl peptidase 2": {"biological_target": "Dipeptidyl peptidase 2 (Homo sapiens, UniProt Q9UHL4)", "test": "Inhibition of DPP2"}, "[1]": {"test": "Apparent permeability from apical to basolateral side of MDCK cells by RRCK assay", "assay_type": "ADME, cell-based, Canis lupus familiaris", "settings": "dog"}, "[2]": {"test": "Fraction unbound in rat plasma", "assay_type": "ADME, cell-free"}, "[3]": {"test": "Half life in rat at 1 mg/kg, iv and 5 mg/kg, po", "assay_type": "ADME, organism-based", "settings": "in vivo"}, "[4]": {"test": "Volume of distribution at steady state in rat at 1 mg/kg, iv", "assay_type": "ADME, organism-based", "parameters": "dose 1 mg/kg, route intravenous", "settings": "in vivo, read-out: Vdss"}, "[5]": {"test": "Oral bioavailability in rat at 5 mg/kg", "assay_type": "ADME, organism-based", "settings": "in vivo"}, "Rattus norvegicus": {"system": "Rattus norvegicus", "test": "Ex vivo inhibition of DPP4 in rat at 5 mg/kg, po after 16 hrs", "assay_type": "functional, organism-based", "parameters": "dose 5 mg/kg"}, "[6]": {"test": "Clearance in rat plasma at 1 mg/kg, iv and 5 mg/kg, po", "assay_type": "ADME, organism-based"}, "Dipeptidyl peptidase 8": {"biological_target": "Dipeptidyl peptidase 8 (Homo sapiens, UniProt Q6V1X1)", "sequence (Q6V1X1 whole entry)": "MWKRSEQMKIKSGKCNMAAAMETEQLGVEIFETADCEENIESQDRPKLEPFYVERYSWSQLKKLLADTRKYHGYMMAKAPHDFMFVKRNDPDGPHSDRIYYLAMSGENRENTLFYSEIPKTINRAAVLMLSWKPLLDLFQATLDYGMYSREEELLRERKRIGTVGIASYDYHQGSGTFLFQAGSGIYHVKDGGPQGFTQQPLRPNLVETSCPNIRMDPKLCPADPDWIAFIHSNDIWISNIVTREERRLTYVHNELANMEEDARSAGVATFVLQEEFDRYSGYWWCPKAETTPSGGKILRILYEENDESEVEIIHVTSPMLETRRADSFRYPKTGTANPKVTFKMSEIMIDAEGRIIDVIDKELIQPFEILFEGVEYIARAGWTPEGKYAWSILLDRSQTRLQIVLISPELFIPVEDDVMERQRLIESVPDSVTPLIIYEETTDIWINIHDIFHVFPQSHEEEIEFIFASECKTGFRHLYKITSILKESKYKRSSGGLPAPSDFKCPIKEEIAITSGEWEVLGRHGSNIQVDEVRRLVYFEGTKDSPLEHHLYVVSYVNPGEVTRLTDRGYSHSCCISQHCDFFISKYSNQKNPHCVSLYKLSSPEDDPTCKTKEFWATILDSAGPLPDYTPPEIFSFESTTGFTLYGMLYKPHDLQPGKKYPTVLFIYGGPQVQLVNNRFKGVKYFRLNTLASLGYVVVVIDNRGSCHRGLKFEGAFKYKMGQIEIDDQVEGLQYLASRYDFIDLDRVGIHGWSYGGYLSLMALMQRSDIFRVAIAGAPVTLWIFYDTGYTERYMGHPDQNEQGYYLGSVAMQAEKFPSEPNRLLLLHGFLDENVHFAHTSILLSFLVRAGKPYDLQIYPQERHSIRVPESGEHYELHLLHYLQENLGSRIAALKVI"}, "[7]": {"test": "Half life in dog", "assay_type": "ADME, organism-based, Canis lupus familiaris", "settings": "in vivo"}, "[8]": {"test": "Volume of distribution at steady state in dog", "assay_type": "ADME, organism-based, Canis lupus familiaris", "settings": "in vivo, read-out: Vdss"}, "Cytochrome P450 2C9": {"biological_target": "Cytochrome P450 2C9 (Homo sapiens, UniProt P11712)", "sequence (P11712 whole entry)": "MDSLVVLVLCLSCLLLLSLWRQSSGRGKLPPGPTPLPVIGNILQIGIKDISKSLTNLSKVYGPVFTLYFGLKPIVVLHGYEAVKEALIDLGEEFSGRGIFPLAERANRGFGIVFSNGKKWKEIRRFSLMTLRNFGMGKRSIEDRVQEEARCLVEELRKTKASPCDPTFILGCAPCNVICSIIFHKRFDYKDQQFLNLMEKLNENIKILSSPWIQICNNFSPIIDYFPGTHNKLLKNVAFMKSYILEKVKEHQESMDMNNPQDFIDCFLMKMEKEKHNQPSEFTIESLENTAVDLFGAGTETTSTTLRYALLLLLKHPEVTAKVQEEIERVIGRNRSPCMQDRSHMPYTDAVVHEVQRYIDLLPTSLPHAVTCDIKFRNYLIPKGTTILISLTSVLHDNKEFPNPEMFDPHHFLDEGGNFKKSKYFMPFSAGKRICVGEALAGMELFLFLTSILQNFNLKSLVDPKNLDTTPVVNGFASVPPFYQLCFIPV", "test": "Inhibition of CYP2C9", "assay_type": "ADME"}, "Cytochrome P450 2D6": {"biological_target": "Cytochrome P450 2D6 (Homo sapiens, UniProt P10635)", "sequence (P10635 whole entry)": "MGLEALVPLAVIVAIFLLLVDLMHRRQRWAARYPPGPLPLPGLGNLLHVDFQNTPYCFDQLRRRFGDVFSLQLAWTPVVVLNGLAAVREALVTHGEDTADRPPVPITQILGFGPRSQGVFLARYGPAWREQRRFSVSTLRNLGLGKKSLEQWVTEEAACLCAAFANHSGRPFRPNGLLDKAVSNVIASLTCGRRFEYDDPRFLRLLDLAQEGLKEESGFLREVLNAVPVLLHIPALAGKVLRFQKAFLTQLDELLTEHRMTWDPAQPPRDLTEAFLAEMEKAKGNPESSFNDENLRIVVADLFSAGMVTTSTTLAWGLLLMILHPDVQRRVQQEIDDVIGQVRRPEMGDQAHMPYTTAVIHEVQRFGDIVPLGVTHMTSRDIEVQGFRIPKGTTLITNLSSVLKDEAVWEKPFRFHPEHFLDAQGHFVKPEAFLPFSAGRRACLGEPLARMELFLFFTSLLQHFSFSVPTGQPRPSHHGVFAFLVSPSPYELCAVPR", "test": "Inhibition of CYP2D6", "assay_type": "ADME"}, "[9]": {"test": "Clearance in dog", "assay_type": "ADME, organism-based, Canis lupus familiaris", "settings": "in vivo"}, "[10]": {"test": "Fraction unbound in human plasma", "assay_type": "ADME, cell-free"}, "Cytochrome P450 3A4": {"biological_target": "Cytochrome P450 3A4 (Homo sapiens, UniProt P08684)", "sequence (P08684 whole entry)": "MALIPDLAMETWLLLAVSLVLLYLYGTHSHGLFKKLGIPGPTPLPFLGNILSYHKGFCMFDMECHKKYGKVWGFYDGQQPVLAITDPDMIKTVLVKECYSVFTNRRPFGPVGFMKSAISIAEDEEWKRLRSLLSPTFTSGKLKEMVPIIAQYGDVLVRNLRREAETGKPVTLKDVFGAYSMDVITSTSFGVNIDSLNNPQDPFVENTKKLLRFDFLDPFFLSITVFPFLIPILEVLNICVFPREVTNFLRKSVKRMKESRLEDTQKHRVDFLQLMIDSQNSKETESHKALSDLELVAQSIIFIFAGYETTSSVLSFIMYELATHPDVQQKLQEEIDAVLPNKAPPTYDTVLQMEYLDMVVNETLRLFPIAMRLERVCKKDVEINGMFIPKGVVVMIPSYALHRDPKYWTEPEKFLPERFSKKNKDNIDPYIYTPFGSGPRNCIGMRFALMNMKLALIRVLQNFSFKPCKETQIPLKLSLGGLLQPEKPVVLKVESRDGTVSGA", "test": "Inhibition of CYP3A4", "assay_type": "ADME"}, "Cytochrome P450 1A2": {"biological_target": "T1, Cytochrome P450 1A2 (Homo sapiens, UniProt P05177)", "T1 sequence (P05177 whole entry)": "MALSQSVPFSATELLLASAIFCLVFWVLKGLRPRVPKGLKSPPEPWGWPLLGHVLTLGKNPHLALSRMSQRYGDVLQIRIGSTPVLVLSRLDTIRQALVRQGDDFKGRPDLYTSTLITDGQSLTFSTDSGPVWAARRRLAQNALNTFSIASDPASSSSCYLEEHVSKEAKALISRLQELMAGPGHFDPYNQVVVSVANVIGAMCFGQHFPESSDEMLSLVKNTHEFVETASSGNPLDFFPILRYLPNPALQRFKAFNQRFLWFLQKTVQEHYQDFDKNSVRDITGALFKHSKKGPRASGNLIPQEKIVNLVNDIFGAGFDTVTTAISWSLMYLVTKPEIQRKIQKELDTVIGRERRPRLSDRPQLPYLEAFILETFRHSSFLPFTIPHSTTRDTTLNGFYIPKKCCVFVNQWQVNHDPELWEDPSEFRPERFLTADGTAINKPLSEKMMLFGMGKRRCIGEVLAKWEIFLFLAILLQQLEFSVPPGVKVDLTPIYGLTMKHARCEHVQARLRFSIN", "test": "Inhibition of CYP1A2", "assay_type": "ADME"}, "[11]": {"test": "Oral bioavailability in dog", "assay_type": "ADME, organism-based, Canis lupus familiaris", "settings": "in vivo"}},
  "note": "Activity calls are given as the source filed them. The calls are words filed in the database; no cut-off is given here.",
  "data": [
    {"smiles": "N[C@H]1CN(c2cc(-c3cc(F)c(F)cc3F)ncn2)C[C@@H]1N1CCCCC1=O", "values": [
      {"measurement": "IC50", "setting": "Dipeptidyl peptidase 4", "value": 47, "unit": "nM"},
      {"measurement": "clearance", "setting": "Liver microsomes", "value": "< 7.2", "unit": "µL/min/mg"}
    ]},
    {"smiles": "COc1ccc(-c2cc(N3C[C@H](N)[C@@H](N4CCCCC4=O)C3)ncn2)cn1", "values": [
      {"measurement": "IC50", "setting": "Dipeptidyl peptidase 2", "value": "> 30000", "unit": "nM"},
      {"measurement": "Papp A→B", "setting": "[1]", "value": 2.7, "unit": "×10⁻⁶ cm/s"}
    ]},
    {"smiles": "N[C@H]1CN(c2cc(-c3cc(F)cc(F)c3F)ncn2)C[C@@H]1c1ccccc1", "values": [
      {"measurement": "clearance", "setting": "Liver microsomes", "value": 85, "unit": "µL/min/mg"}
    ]},
    {"smiles": "N[C@H]1CN(c2cc(-c3cc(F)c(F)cc3F)ncn2)C[C@@H]1N1CCCC1=O", "values": [
      {"measurement": "IC50", "setting": "Dipeptidyl peptidase 4", "value": 488, "unit": "nM"},
      {"measurement": "clearance", "setting": "Liver microsomes", "value": "< 7", "unit": "µL/min/mg"}
    ]},
    {"smiles": "N[C@H]1CN(c2cc(NC3CC3)ncn2)C[C@@H]1N1CCCC1=O", "values": [
      {"measurement": "clearance", "setting": "Liver microsomes", "value": "< 7", "unit": "µL/min/mg"}
    ]},
    {"smiles": "N[C@H]1CN(c2cc(N3CCc4nocc4C3)ncn2)C[C@@H]1N1CCCC1=O", "values": [
      {"measurement": "clearance", "setting": "Liver microsomes", "value": "< 7", "unit": "µL/min/mg"}
    ]},
    {"smiles": "N[C@H]1CN(c2cc(NC3CC3)ncn2)C[C@@H]1N1CCCCC1=O", "values": [
      {"measurement": "clearance", "setting": "Liver microsomes", "value": "< 7", "unit": "µL/min/mg"}
    ]},
    {"smiles": "N[C@H]1CN(c2cc(N3CCC(F)(F)C3)ncn2)C[C@@H]1N1CCCCC1=O", "values": [
      {"measurement": "fraction unbound", "setting": "[2]", "value": 0.75},
      {"measurement": "half-life", "setting": "[3]", "value": 0.78, "unit": "h"},
      {"measurement": "Vd", "setting": "[4]", "value": 2.3, "unit": "L/kg"},
      {"measurement": "IC50", "setting": "Dipeptidyl peptidase 4", "value": 26, "unit": "nM"},
      {"measurement": "bioavailability", "setting": "[5]", "value": 21, "unit": "%"},
      {"measurement": "Papp A→B", "setting": "[1]", "value": 1.8, "unit": "×10⁻⁶ cm/s"},
      {"measurement": "inhibition", "setting": "Rattus norvegicus", "value": "Active"},
      {"measurement": "clearance", "setting": "[6]", "value": 60.1, "unit": "mL/min/kg"},
      {"measurement": "IC50", "setting": "Dipeptidyl peptidase 8", "value": "> 30000", "unit": "nM"}
    ]},
    {"smiles": "Cc1nc(N2C[C@H](N)[C@@H](N3CC(F)(F)CCC3=O)C2)cc(N2CCC(F)(F)C2)n1", "values": [
      {"measurement": "IC50", "setting": "Dipeptidyl peptidase 4", "value": 13, "unit": "nM"},
      {"measurement": "Papp A→B", "setting": "[1]", "value": 3.9, "unit": "×10⁻⁶ cm/s"},
      {"measurement": "IC50", "setting": "Dipeptidyl peptidase 8", "value": "> 30000", "unit": "nM"}
    ]},
    {"smiles": "N[C@H]1CN(c2ncnc(N3CCC(F)(F)C3)n2)C[C@@H]1N1CCCCC1=O", "values": [
      {"measurement": "fraction unbound", "setting": "[2]", "value": 0.86},
      {"measurement": "half-life", "setting": "[3]", "value": 5, "unit": "h"},
      {"measurement": "Vd", "setting": "[4]", "value": 4.7, "unit": "L/kg"},
      {"measurement": "bioavailability", "setting": "[5]", "value": 52, "unit": "%"},
      {"measurement": "Papp A→B", "setting": "[1]", "value": 3.8, "unit": "×10⁻⁶ cm/s"},
      {"measurement": "inhibition", "setting": "Rattus norvegicus", "value": "Active"},
      {"measurement": "clearance", "setting": "[6]", "value": 36.8, "unit": "mL/min/kg"},
      {"measurement": "IC50", "setting": "Dipeptidyl peptidase 8", "value": "> 30000", "unit": "nM"}
    ]},
    {"smiles": "N[C@H]1CN(c2cc(N3CCc4nocc4C3)ncn2)C[C@@H]1N1CCCCC1=O", "values": [
      {"measurement": "IC50", "setting": "Dipeptidyl peptidase 4", "value": 12, "unit": "nM"},
      {"measurement": "clearance", "setting": "Liver microsomes", "value": "< 7.5", "unit": "µL/min/mg"}
    ]},
    {"smiles": "N[C@H]1CN(c2ncnc(N3CCC(F)(F)C3)n2)C[C@@H]1N1CC(F)(F)CCC1=O", "values": [
      {"measurement": "half-life", "setting": "[3]", "value": 3.6, "unit": "h"},
      {"measurement": "half-life", "setting": "[7]", "value": 5.9, "unit": "h"},
      {"measurement": "Vd", "setting": "[4]", "value": 8.4, "unit": "L/kg"},
      {"measurement": "Vd", "setting": "[8]", "value": 1.9, "unit": "L/kg"},
      {"measurement": "IC50", "setting": "Cytochrome P450 2C9", "value": "> 15000", "unit": "nM"},
      {"measurement": "IC50", "setting": "Cytochrome P450 2D6", "value": "> 15000", "unit": "nM"},
      {"measurement": "clearance", "setting": "[9]", "value": 7.2, "unit": "mL/min/kg"},
      {"measurement": "bioavailability", "setting": "[5]", "value": 90, "unit": "%"},
      {"measurement": "Papp A→B", "setting": "[1]", "value": 5, "unit": "×10⁻⁶ cm/s"},
      {"measurement": "fraction unbound", "setting": "[10]", "value": 0.83},
      {"measurement": "IC50", "setting": "Cytochrome P450 3A4", "value": "> 15000", "unit": "nM"},
      {"measurement": "IC50", "setting": "Cytochrome P450 1A2", "value": "> 15000", "unit": "nM"},
      {"measurement": "clearance", "setting": "[6]", "value": 46, "unit": "mL/min/kg"},
      {"measurement": "IC50", "setting": "Dipeptidyl peptidase 8", "value": "> 30000", "unit": "nM"},
      {"measurement": "bioavailability", "setting": "[11]", "value": 150, "unit": "%"}
    ]},
    {"smiles": "N[C@H]1CN(c2cc(N3CCc4nocc4C3)ncn2)C[C@@H]1c1ccccc1", "values": [
      {"measurement": "IC50", "setting": "Dipeptidyl peptidase 4", "value": 1.6, "unit": "nM"},
      {"measurement": "clearance", "setting": "Liver microsomes", "value": 56, "unit": "µL/min/mg"}
    ]},
    {"smiles": "N[C@H]1CN(c2cc(N3CCC(F)(F)C3)ncn2)C[C@@H]1N1CC(F)(F)CCC1=O", "values": [
      {"measurement": "fraction unbound", "setting": "[2]", "value": 0.82},
      {"measurement": "half-life", "setting": "[3]", "value": 2.4, "unit": "h"},
      {"measurement": "Vd", "setting": "[4]", "value": 5.7, "unit": "L/kg"},
      {"measurement": "bioavailability", "setting": "[5]", "value": 50, "unit": "%"},
      {"measurement": "Papp A→B", "setting": "[1]", "value": 3.4, "unit": "×10⁻⁶ cm/s"},
      {"measurement": "clearance", "setting": "[6]", "value": 84, "unit": "mL/min/kg"},
      {"measurement": "IC50", "setting": "Dipeptidyl peptidase 8", "value": "> 30000", "unit": "nM"}
    ]},
    {"smiles": "N[C@H]1CN(c2ncnc(-c3ccccc3)n2)C[C@@H]1N1CCCCC1=O", "values": [
      {"measurement": "IC50", "setting": "Dipeptidyl peptidase 2", "value": "> 30000", "unit": "nM"},
      {"measurement": "Papp A→B", "setting": "[1]", "value": 35.7, "unit": "×10⁻⁶ cm/s"}
    ]},
    {"smiles": "N[C@H]1CN(c2cc(NC3CC3)ncn2)C[C@@H]1c1ccccc1", "values": [
      {"measurement": "IC50", "setting": "Dipeptidyl peptidase 4", "value": 19, "unit": "nM"},
      {"measurement": "clearance", "setting": "Liver microsomes", "value": 38, "unit": "µL/min/mg"}
    ]}
  ]
}
